# According to patent US20060014727A1, “Angiogenic compounds and uses thereof” (priority 2002, published 2006):
# Experiments:
# [1] = test system: Human umbilical vein endothelial cells (HUVEC); test: Endothelial sprouting assay; type: cell-based; conditions: HUVEC-coated beads in fibrin gels, 3 days, 0.625 μg/ml to 5 μg/ml, FIG. 1, averages from seven independent experiments
# Procedure: Human umbilical vein endothelial cells (HUVEC) from normal umbilical cords were obtained by collagenase treatment. Cultures were propagated in MCDB medium supplemented with 15% FCS, heparin, and endothelial cell growth supplement. Endothelial sprouting was assessed by a modification of the method of Nehls and Drenckhahn ^14. Briefly, microcarrier beads coated with gelatin (Cytodex 3, Sigma) were seeded with HUVEC. When the cells reached confluence on the beads, equal numbers of […] beads were embedded in fibrin gels in 96-well plates. For preparation of fibrin gels, bovine fibrinogen was dissolved in MCDB at a concentration of 2.5 mg/ml. Aprotinin was added at a concentration of 0.05 mg/ml and the solution filtered through a 0.22 micron filter. Fibrinogen solution was supplemented with FGF-2 or sokotrasterol sulphate. As a control, fibrinogen solution without angiogenic factor was used. Following transfer of the fibrinogen solution to 96-well plates, HUVEC-coated beads were added at a density of 50 beads/well, and clotting was induced by the addition of thrombin (1.2 U/ml). […] After 3 days of incubation with daily medium changes, the number of capillary-like tubes formed was quantitated by counting the number of tube-like structures per microcarrier bead (sprouts/bead). Only sprouts greater than 150 μm in length and composed of at least 3 endothelial cells were counted. […]
# [2] = test system: chick chorioallantoic membrane (CAM); test: Chick chorioallantoic membrane (CAM) assay; type: in vivo, Gallus gallus domesticus; conditions: 20, 40 and 60 μg/ml, 20 μl on gelatin sponge, day 8 to day 10
# Procedure: Fertilized White Leghorn chicken eggs (Gallus gallus domesticus) were incubated at 37° C. under conditions of constant humidity. All chick eggs were handled according to institutional animal care procedures. On embryonic day 6, the developing chick chorioallantoic membrane (CAM) was separated from the shell by opening a small circular window at the broad end of the egg above the air sac. The embryos were checked for normal development, the window sealed with Parafilm, and the eggs returned to the incubator for 2 more days. On day 8, CAMs were treated with FGF-2 (30 ng/ml), sokotrasterol sulphate (20, 40 and 60 μg/ml) or PBS by loading 20 μl onto 2-mm^3 gelatin sponges (Gelfoam; Pharmacia Upjohn), which were then placed on the surface of the developing CAM. Eggs were resealed and returned to the incubator. On day 10, images of the CAMs were captured digitally using an Olympus SZX9 stereomicroscope (Olympus America) equipped with a Spot RT digital imaging system (Diagnostic Instruments). Neovascularization was quantitated for each CAM by counting the number of vessels that entered the sponge area, and dividing by the perimeter of the sponge (vessels/mm). Northern Eclipse version 6.0 (Empix Imaging Inc.) was used for manual vessel counting and mesh perimeter measurements.
# [3] = listed as Sokotrasterol sulphate
substance,measurement,setting,value
sokotrasterol sulphate,"endothelial sprouting (number of tube-like structures per microcarrier bead, sprouts/bead)",[1],promoted endothelial sprouting in vitro in a concentration-dependent manner
same,"endothelial sprouting (number of tube-like structures per microcarrier bead, sprouts/bead)",[1]; [3],promotes endothelial sprouting in vitro
same,neovascularization: number of vessels entering the gelatin sponge per mm of perimeter (vessels/mm),[2],positive concentration-dependent effect
same,neovascularization: number of vessels entering the gelatin sponge per mm of perimeter (vessels/mm),[2]; [3],promotes angiogenesis
